Experimental data taken from US7547804B2, “Compounds, compositions, and methods employing same” (Myriad Genetics, Inc., priority 2002, dated 2009).

test system: LNCaP cell lines; test: WST-1 Cell Proliferation and Viability Assay; assay type: cell-based; details: Homo sapiens; LNCaP cells, compound incubation 18-72 hours
Procedure: WST-1 Cell Proliferation and Viability Assay
Cell proliferation and cell viability was assessed using the tetrazolium salt WST-1 (Roche Applied Science, Indianapolis Ind.). The assay is based on the cleavage of WST-1 (light red) by mitochondrial dehydrogenase causing the formation of formazan (dark red), which can be measured on an optical density (O.D.) reader. LNCaP cell lines were plated in 96 well tissue culture plates (Corning Costar, N.Y.) at a density of 5000 cells/well in 150 μl complete media phenol-red free (RPMI-1640 [Invitrogen, Carlsbad Calif.] and 10% fetal calf serum). This plate is termed the assay plate. After the cells are plated, they are then incubated overnight at 37 degrees Celsius in a humidified chamber containing 5% CO2 (incubator).
Compounds are added to the assay plate in 50 μl of complete media and 0.4% DMSO (v:v) making the final DMSO concentration 0.1%. The assay plate is then returned to the incubator for 18-72 hours. WST-1 reagent is then added (20 μl/well) and the plate is placed on an ELISA plate shaker for 30 minutes at room temperature. Plates are then transferred back to the incubator for an additional 3 hours. Plates are then read on a 96 well plate O.D. reader at A490-A650.

SMILES | EC50 [µM]
Cc1ccc(O)c(C(=O)NCc2cccc(-c3ccccc3)c2)c1 [Compound 206] | 34
O=C(Nc1cc(C(F)(F)F)ccc1OCCc1ccc(Cl)cc1Cl)c1cc(Cl)ccc1O [Compound 253] | 1
COc1ccccc1CCOc1cccc(NC(=O)c2cc(-c3cccc(Cl)c3)ccc2O)c1 [Compound 349] | 10
Cc1ccccc1CCOc1cccc(NC(=O)c2cc(Cl)ccc2O)c1 [Compound 55] | 15
Cc1ccc(NC(=O)c2cc(Cl)ccc2O)cc1 [Compound 114] | 10
N#Cc1ccc(OCCc2ccccc2)c(NC(=O)c2cc(Cl)ccc2O)c1 [Compound 152] | 7
O=C(Nc1cccc(OCCC2CCCCC2)c1)c1cc(Cl)ccc1O [Compound 46] | 5
O=C(NCc1cccc(Oc2ccccc2)c1)c1cc(Cl)ccc1O [Compound 67] | 50
O=C(Nc1cccc(OCCc2cccc(F)c2)c1)c1cc(Cl)ccc1O [Compound 35] | 10
O=C(Nc1cc(C(F)(F)F)ccc1OCCc1ccc(Cl)c(Cl)c1)c1cc(Cl)ccc1O [Compound 249] | 0.9
COc1ccccc1CCOc1cccc(NC(=O)c2cc(Br)cc(F)c2O)c1 [Compound 346] | 28
CCOc1cc(CNc2cccc(NC(=O)c3cc(Cl)ccc3O)c2)ccc1OCc1ccccc1 [Compound 10] | 14
Cc1ccc(OCCc2cccc(C(F)(F)F)c2)c(NC(=O)c2cc(Cl)ccc2O)c1 [Compound 157] | 2
CN1CCN(c2ccc(C(F)(F)F)cc2NC(=O)c2cc(Cl)ccc2O)CC1 [Compound 309] | 17.4
CC(C)(C)c1cc(C(=O)NCc2cccc(-c3ccccc3)c2)c(O)c(C(C)(C)C)c1 [Compound 219] | 32
CC(C)OCCOc1ccc(C(F)(F)F)cc1NC(=O)c1cc(Cl)ccc1O [Compound 296] | 0.8
O=C(NCc1cccc(-c2ccccc2)c1)c1cc(Br)ccc1O [Compound 192] | 30
Cc1ccc(C(=O)NCc2cccc(-c3ccccc3)c2)c(O)c1 [Compound 205] | 43

SMILES | EC50 [µM]
COC(=O)CCc1ccccc1CCOc1ccc(Cl)cc1NC(=O)c1cc(Cl)ccc1O [Compound 303] | 3.3
O=C(Nc1cc(Cl)ccc1OCCc1ccccc1C(F)(F)F)c1cc(Cl)ccc1O [Compound 82] | 0.7
O=C(Nc1cc(Cl)cc(Cl)c1OCCc1ccc(CC(F)(F)F)cc1)c1cc(Cl)ccc1O [Compound 163] | 2
O=C(Nc1cc(C(F)(F)F)ccc1OCCOCCCl)c1cc(Cl)ccc1O [Compound 299] | 1
O=C(Nc1cc(Cl)ccc1OCCC1CC1)c1cc(Cl)ccc1O [Compound 288] | 3.3
COc1ccccc1CCOc1cccc(NC(=O)c2cc(-n3cccc3)ccc2O)c1 [Compound 233] | 10
Cc1ccc(OCCc2ccccc2)cc1NC(=O)c1cc(Cl)ccc1O [Compound 43] | 3
CC(C)C(COc1ccc(C(F)(F)F)cc1NC(=O)c1cc(Cl)ccc1O)c1ccc(Cl)cc1 (centres unmarked) [Compound 283] | 0.9
COc1ccccc1CCOc1cccc(NC(=O)c2cc(-c3cc4ccccc4o3)ccc2O)c1 [Compound 339] | 8
COc1ccc(C(=O)Nc2cccc(OCCc3ccccc3)c2)c(O)c1 [Compound 185] | 32
Cc1ccccc1COc1ccc(Cl)cc1NC(=O)c1cc(Cl)ccc1O [Compound 313] | 3
O=C(Nc1ccc(OCCc2ccccc2)cc1)c1cc(Cl)ccc1O [Compound 63] | 20
CCN(CC)c1ccc(NC(=O)c2cc(Cl)ccc2O)c(OCCc2cccc(C(F)(F)F)c2)c1 [Compound 360] | 2.4
Cc1ccc(NC(=O)c2cc(Cl)ccc2O)cc1OCCc1ccccc1 [Compound 45] | 4
O=C(Nc1cc(C(F)(F)F)cc(C(F)(F)F)c1)c1cc(Cl)ccc1O [Compound 169] | 2
O=C(Nc1cc(C(F)(F)F)ccc1OCCc1cccc(C(F)(F)F)c1)c1cc(Cl)ccc1O [Compound 155] | 0.4
Cc1ccc(OCCc2ccccc2)c(NC(=O)c2cc(Cl)ccc2O)c1 [Compound 149] | 4

Results, then the compound that gave them:

EC50 [µM] | SMILES
21 | COc1ccccc1CCOc1cccc(NC(=O)c2ccccc2O)c1 [Compound 198]
4 | CN(C)c1ccc(CCOc2cccc(NC(=O)c3cc(Cl)ccc3O)c2)cc1 [Compound 47]
3.1 | COC(=O)[C@H]1CCCN1c1ccc(NC(=O)c2cc(Cl)ccc2O)c(OCCc2cccc(C(F)(F)F)c2)c1 [Compound 359]
3 | CCC(COc1cccc(NC(=O)c2cc(Cl)ccc2O)c1)c1ccccc1 (centres unmarked) [Compound 42]
14 | O=C(NCCc1cccc(OCCc2ccccc2)c1)c1cc(Cl)ccc1O [Compound 143]
23 | O=C(NCc1ccc(OCCc2ccccc2)cc1)c1cc(Cl)ccc1O [Compound 53]
2 | CC(C)(C)c1ccc(OCCc2ccccc2)c(NC(=O)c2cc(Cl)ccc2O)c1 [Compound 102]
1 | Cc1cc(OCCc2ccc(CC(F)(F)F)cc2)c(NC(=O)c2cc(Cl)ccc2O)cc1Cl [Compound 164]
4 | O=C(Nc1cc(Cl)ccc1OC1CCCC[C@H]1c1ccccc1)c1cc(Cl)ccc1O (some centres unmarked) [Compound 98]
28 | COc1ccccc1CCOc1cccc(NC(=O)c2cc(Cl)cc([N+](=O)[O-])c2O)c1 [Compound 336]
6 | CC(C)c1ccc(COc2cccc(NC(=O)c3cc(Cl)ccc3O)c2)cc1 [Compound 85]
2 | Cc1ccc(CCOc2ccc(Cl)cc2NC(=O)c2cc(Cl)ccc2O)cc1 [Compound 78]
7.3 | CN(CCc1ccccn1)c1ccc(NC(=O)c2cc(Cl)ccc2O)c(OCCc2cccc(C(F)(F)F)c2)c1 [Compound 376]
2 | O=C(Nc1cc(C(F)(F)F)cc(Cl)c1OCCc1ccc(Cl)cc1)c1cc(Cl)ccc1O [Compound 263]
23 | COc1ccc(C(=O)Nc2cccc(OCCc3ccccc3OC)c2)c(O)c1 [Compound 182]
2.6 | Cc1ccc(OCCc2cccc(C(F)(F)F)c2)cc1NC(=O)c1cc(Cl)ccc1O [Compound 333]
1.2 | COC(=O)C1CCCN(c2ccc(C(F)(F)F)cc2NC(=O)c2cc(Cl)ccc2O)C1 (centres unmarked) [Compound 315]
2 | O=C(Nc1cc(OCCc2ccccc2)c(Cl)cc1Cl)c1cc(Cl)ccc1O [Compound 92]

EC50 [µM] | SMILES
3 | COc1ccc(CCOc2ccc(Cl)c(NC(=O)c3cc(Cl)ccc3O)c2)cc1 [Compound 37]
17 | O=C(Nc1cccc(OCc2ccc(Cl)cc2)c1)c1cc(Cl)ccc1O [Compound 65]
11 | CCC(C)c1cccc(-c2cccc(CNC(=O)c3cc(Cl)ccc3O)c2)c1 (centres unmarked) [Compound 236]
4 | O=C(Nc1cccc([N+](=O)[O-])c1)c1cc(Cl)ccc1O [Compound 23]
33 | CC(C)c1cccc(C(=O)Nc2cccc(OCCc3ccccc3)c2)c1O [Compound 201]
10 | COc1ccccc1CCOc1cccc(NC(=O)c2cc(-c3ccccc3Cl)ccc2O)c1 [Compound 350]
8 | COc1ccccc1CCOc1cccc(NC(=O)c2cc(-c3ccc(F)cc3F)ccc2O)c1 [Compound 223]
35 | O=C(NCc1cccc(-c2ccccc2)c1)c1cc(F)ccc1O [Compound 190]
9 | O=C(NCc1cc(C(F)(F)F)cc(C(F)(F)F)c1)c1cc(Cl)ccc1O [Compound 122]
4 | O=C(Nc1ccccc1OCCc1ccccc1)c1cc(Cl)ccc1O [Compound 80]
4 | COCCN(C)c1ccc(NC(=O)c2cc(Cl)ccc2O)c(OCCc2cccc(C(F)(F)F)c2)c1 [Compound 369]
3.3 | COC(=O)c1ccc(OCCc2ccccc2)c(NC(=O)c2cc(Cl)ccc2O)c1 [Compound 325]
6 | O=CNc1cccc(C(=O)Nc2cc(C(F)(F)F)ccc2OCCc2cccc(C(F)(F)F)c2)c1O [Compound 261]
24 | CCOc1cc(CNc2cccc(NC(=O)c3cc(Cl)ccc3O)c2)ccc1OC [Compound 20]
0.8 | O=C(Nc1cc(C(F)(F)F)ccc1OCCc1ccc(Cl)cc1)c1cc(Cl)ccc1O [Compound 129]
8 | COc1ccccc1CCCOc1cccc(NC(=O)c2cc(Cl)ccc2O)c1 [Compound 16]
26 | COc1ccc(NC(=O)c2cc(Cl)ccc2O)c(OC)c1 [Compound 256]

same assay, conditions: Homo sapiens; LNCaP cells; flagged "Estimated": based on actual data at different concentrations

SMILES | EC50 [µM]
O=C(Nc1cccc(OCCc2ccccc2)c1)c1cccc(O)c1 [Compound 227] | 22
Cc1c(CNC(=O)c2cc(Cl)ccc2O)cccc1-c1ccccc1 [Compound 120] | 18
O=C(NCc1ccc(Cl)c(C(F)(F)F)c1)c1cc(Cl)ccc1O [Compound 290] | 30
COc1ccccc1CCOc1cccc(NC(=O)c2cccc(F)c2O)c1 [Compound 353] | 25
O=C(Nc1cccc(OCCc2ccccc2)c1)c1cc(Cl)cc([N+](=O)[O-])c1O [Compound 123] | 30
O=C(NCc1cccc(-c2ccccc2)c1)c1cccc(-c2ccccc2)c1O [Compound 218] | 32
O=C(Nc1ccccc1C(=O)NCc1ccccc1)c1cc(Cl)ccc1O [Compound 255] | 30

Second part, the compound after the results:

EC50 [µM] | SMILES
45 | COc1ccc(Cl)cc1C(=O)N(C)c1cccc(OCCc2ccccc2)c1 [Compound 215]
40 | O=C(NCc1cc(C(F)(F)F)ccc1Cl)c1cc(Cl)ccc1O [Compound 318]
30 | COc1cccc(-c2cccc(CNC(=O)c3cc(Cl)ccc3O)c2)c1 [Compound 317]
